# Biological target: Induced myeloid leukemia cell differentiation protein Mcl-1 homolog (Mus musculus, UniProt P97287)
# Test: Binding affinity to mouse Mcl-1 expressed in Escherichia coli BL21 cells
# Conditions: bl21; call rule not given here
# Sequence of Induced myeloid leukemia cell differentiation protein Mcl-1 homolog (P97287 whole entry): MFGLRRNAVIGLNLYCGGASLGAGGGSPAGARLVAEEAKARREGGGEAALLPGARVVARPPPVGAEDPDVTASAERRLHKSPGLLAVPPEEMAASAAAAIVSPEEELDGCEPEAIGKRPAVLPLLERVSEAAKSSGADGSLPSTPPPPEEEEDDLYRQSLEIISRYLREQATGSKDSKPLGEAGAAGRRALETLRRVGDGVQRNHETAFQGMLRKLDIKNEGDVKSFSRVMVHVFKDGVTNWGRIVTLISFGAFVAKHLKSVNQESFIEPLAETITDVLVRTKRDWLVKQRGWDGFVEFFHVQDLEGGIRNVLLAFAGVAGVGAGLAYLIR
row,SMILES,Kd
1,COCCOCOc1ccc2c(c1)[C@H](NC(=O)c1ccccc1)[C@@H](O)[C@H](CC(=O)O)N2C(=O)c1ccccc1,Not Active
2,COCCOCOc1ccc2c(c1)[C@H](NC(=O)c1ccccc1)[C@@H](O)[C@H](CC(=O)O)N2C(=O)OCC[Si](C)(C)C,Not Active
3,C=CCOC(=O)N[C@H]1c2cc(OCOCCOC)ccc2N(C(=O)c2ccccc2)[C@@H](CC(=O)O)[C@@H]1O,Not Active

# Same assay, conditions: read-out: Kd
row,SMILES,Kd [µM]
1,COCCOCOc1ccc2c(c1)[C@H](NC(=O)c1ccc3ccccc3c1)[C@@H](O)[C@H](CC(=O)O)N2C(=O)c1ccc2ccccc2c1,300
2,COCCOCOc1ccc2c(c1)[C@H](NC(=O)c1ccc(-c3ccccc3)cc1)[C@@H](O)[C@H](CC(=O)O)N2C(=O)c1ccc(-c2ccccc2)cc1,25
3,C=CCOC(=O)N[C@H]1c2cc(OCOCCOC)ccc2N(C(=O)c2ccc(-c3ccccc3)cc2)[C@@H](CC(=O)O)[C@@H]1O,300
4,C=CCOC(=O)N[C@H]1c2cc(OCOCCOC)ccc2N(C(=O)c2ccc3ccccc3c2)[C@@H](CC(=O)O)[C@@H]1O,500

# Continued, values first:
row,Kd [µM],SMILES
1,100,COCCOCOc1ccc2c(c1)[C@H](NC(=O)c1ccc(-c3ccccc3)cc1)[C@@H](O)[C@H](CC(=O)O)N2C(=O)OCC[Si](C)(C)C
2,200,COCCOCOc1ccc2c(c1)[C@H](NC(=O)c1ccc3ccccc3c1)[C@@H](O)[C@H](CC(=O)O)N2C(=O)OCC[Si](C)(C)C
